In assay [1] the test system is Human immunodeficiency virus 1. In words: Antiviral activity against HIV-1 K103N mutant virus. It is filed as functional.
Assay [2] deals with Human immunodeficiency virus 1. The assay is described as follows: Antiviral activity was evaluated for the inhibition of wild-type RF strain of HIV-1 in an in vitro enzyme assay. The class given is functional.
Assay [3] concerns Human immunodeficiency virus 1. The assay is described as follows: Antiviral activity toward K103N mutant HIV-1 virus as protein binding adjusted (PB adj). The class given is functional.
Assay [4] addresses Human immunodeficiency virus type 1 reverse transcriptase (Human immunodeficiency virus 1) (UniProt Q72547). The settings on record: Plasma.
Description: Effect of human plasma protein binding on antiviral efficacy.
For assay [5], the target named is Human immunodeficiency virus type 1 reverse transcriptase (Human immunodeficiency virus 1, UniProt Q72547). The assay is described as follows: Inhibition of HIV-1 reverse transcriptase.
Assay [6] relates to Human immunodeficiency virus 1. The assay is described as follows: Compound was evaluated for antiviral activity against L100I mutant virus. The class given is functional.
In assay [7] the test system is Human immunodeficiency virus 1. In words: Compound was evaluated for the inhibition of wilde-type RF strain of HIV-1. The class given is functional.
Assay [8] has as its target Human immunodeficiency virus type 1 reverse transcriptase (Human immunodeficiency virus 1) (UniProt Q72547). The assay is described as follows: Compound was evaluated for the inhibition of HIV-1 Reverse transcriptase.
Assay [9] is filed under the species Homo sapiens. In words: percentage of the free compound in tissue culture medium.
For assay [10], the species on record is Homo sapiens. In words: percentage of the free compound in human serum. The class given is cell-free.
For assay [11], the system named is Human immunodeficiency virus 1. In words: In vitro antiviral activity against HIV-1 (L100I). It is filed as functional.

On to `CCC#C[C@]1(C(F)(F)F)NC(=O)Nc2ccc(F)cc21`, for which the IC90 stood at 71 nM in assay [1] (Human immunodeficiency virus 1); 2.5 nM in assay [2]; 710 nM in assay [3]; 25 nM in assay [4]; 74 nM in [6]. The molecule further had an IC50 in [5] of 54 nM.
As to `CC(C)C#C[C@@]1(C(F)(F)F)NC(=O)Nc2ccc(F)c(F)c21`, the 90% effect concentration (IC90) in assay [7] was determined as 229 nM; in [8], 1520 nM.
With `O=C1Nc2ccc(F)c(F)c2[C@@](C#CC2CC2)(C(F)(F)F)N1` (stereo in doubt), the Free in the assay filed under Homo sapiens [9] turned out to be 37%; in the assay listed under Homo sapiens [10] it was 2.8%. Also, the IC90 in assay [8] turned out to be 18 nM.
In the case of `O=C1Nc2ccc(F)cc2[C@@](C#Cc2ccccn2)(C(F)(F)F)N1`, the 90% effect concentration (IC90) in [11] worked out at 255 nM; in assay [1] (Human immunodeficiency virus 1), 483 nM; in [2], 5 nM; in [3], 3140 nM; in [4], 33 nM. In assay [5], the IC50 worked out at 126 nM.
Take `O=C1Nc2ccc(F)c(F)c2[C@@](C#Cc2ccccc2)(C(F)(F)F)N1`: the IC90 in [11] came to 256 nM; in assay [1] (Human immunodeficiency virus 1), 191 nM; in [2] it was 6.2 nM; in [3], 1340 nM; in assay [4], 43 nM. The molecule further displayed a half-maximal inhibitory concentration (IC50) in assay [5] of 181 nM.
`CC(C)C#C[C@]1(C(F)(F)F)NC(=O)Nc2ccc(F)c(F)c21` (stereo in doubt; 20) [listing 1 of 2 here] came in with a concentration for an effect of 90% (IC90) in [4] of 21 nM. This lies in the double-digit nanomolar range.
For `Cc1ccnc2c1NC(=O)c1cccnc1N2C1CC1` [NEVIRAPINE], the concentration for an effect of 90% (IC90) worked out at 5100 nM in assay [1] (Human immunodeficiency virus 1), 50 nM in [2], 10200 nM in assay [3] and 100 nM in assay [4].
For `COc1ccc2c(c1)[C@@](C#Cc1ccccn1)(C(F)(F)F)NC(=O)N2`, the IC90 in assay [11] turned out to be 98 nM; in [1] (Human immunodeficiency virus 1), 338 nM; in [2], 8.1 nM; in assay [3], 5880 nM; in assay [4] it was 138 nM. The same molecule had an IC50 in assay [5] of 237 nM.
`O=C1Nc2ccc(Cl)cc2[C@@](C#CC2CC2)(C(F)(F)F)N1` (stereo in doubt; 14) [listing 1 of 2 here]: in assay [4], the 90% effect level (IC90) was put at 41 nM.
In the case of `O=C1Nc2ccc(F)c(Cl)c2[C@@](C#CC2CC2)(C(F)(F)F)N1`, the IC90 in assay [11] worked out at 16 nM; in assay [1] (Human immunodeficiency virus 1), 18 nM; in assay [2], 2.7 nM; in assay [3] it was 178 nM; in assay [4], 27 nM. In [5], this molecule displayed an IC50 of 59 nM.
In the case of `O=C1Nc2cccc(F)c2[C@@](C#CC2CC2)(C(F)(F)F)N1`, the IC90 in [11] was 108 nM; in [1] (Human immunodeficiency virus 1), 89 nM; in assay [2], 1.4 nM; in [3], 917 nM; in [4], 14 nM. This molecule came in with an IC50 in assay [5] of 62 nM.
For the molecule `O=C1Nc2ccc(F)c(F)c2[C@@](C#CC2CC2)(C(F)(F)F)N1` (stereo in doubt; 13) [listing 1 of 2 here], the concentration for an effect of 90% (IC90) is 12 nM in assay [11], 13 nM in assay [1] (Human immunodeficiency virus 1), 2.1 nM in assay [2] and 119 nM in assay [3]. This molecule also returned a half-inhibitory concentration (IC50) in [5] of 74 nM.
Take `O=C1Nc2ccc(Cl)cc2[C@@](C#CC2CC2)(C(F)(F)F)N1` (stereo in doubt; 14) [listing 2 of 2 here]: the IC90 was found to be 18 nM in assay [11], 22 nM in [1], 2.7 nM in [2] and 336 nM in assay [3]. The 50% inhibitory concentration (IC50) in assay [5] stood at 111 nM.
`CC(C)C#C[C@]1(C(F)(F)F)NC(=O)Nc2ccc(F)c(F)c21` (stereo in doubt; 20) [listing 2 of 2 here]: the IC90 came to 10 nM in assay [11], 14 nM in assay [1] (Human immunodeficiency virus 1), 2.1 nM in [2] and 139 nM in assay [3]. This molecule also came in with an IC50 in [5] of 91 nM.
Consider `O=C1Nc2ccc(Cl)c(Cl)c2[C@@](C#CC2CC2)(C(F)(F)F)N1`, for which the IC90 in [1] (Human immunodeficiency virus 1) is 18 nM; in assay [2], 8 nM; in assay [3] it was 196 nM; in assay [4], 88 nM. In assay [5], this molecule came in with a concentration for half-maximal inhibition (IC50) of 166 nM.
With `CC(C)Nc1cccnc1N1CCN(C(=O)c2cc3cc(NS(C)(=O)=O)ccc3[nH]2)CC1` [DELAVIRDINE], the results for the IC90 in [1] (Human immunodeficiency virus 1), in assay [2] and in assay [3] were 1000 nM, 37 nM and 38000 nM, respectively.
As to `CC(C)C#C[C@]1(C(F)(F)F)NC(=O)Nc2ccc(F)cc21`, the IC90 in [11] worked out at 17 nM; in [1] (Human immunodeficiency virus 1), 27 nM; in [2], 2.6 nM; in [3], 891 nM; in assay [4], 86 nM. This molecule also displayed a half-inhibitory concentration (IC50) in assay [5] of 39 nM.
As for `O=C1Nc2ccc(Cl)cc2[C@@](C#CC2CC2)(C(F)(F)F)N1` (stereo in doubt), the concentration for an effect of 90% (IC90) in [8] stood at 31 nM.
Consider `O=C1Nc2cccc(Cl)c2[C@@](C#CC2CC2)(C(F)(F)F)N1`, for which the IC90 in [11] is 70 nM; in [1] (Human immunodeficiency virus 1) it was 63 nM; in assay [2], 2.5 nM; in assay [3] it was 441 nM; in [4], 18 nM. This molecule returned an IC50 in [5] of 72 nM.
In the case of `CC(C)C#C[C@]1(C(F)(F)F)NC(=O)Nc2ccc(F)c(F)c21` (stereo in doubt; 37) [listing 1 of 2 here], the IC90 in assay [1] was found to be 9 nM; in assay [7] it was 1.6 nM.
As for `COc1ccc2c(c1)[C@@](C#CC(C)C)(C(F)(F)F)NC(=O)N2`, the 90% effect concentration (IC90) in [11] came to 28 nM; in assay [1] (Human immunodeficiency virus 1), 56 nM; in [2], 3.8 nM; in [3], 599 nM; in assay [4] it was 42 nM. The molecule further showed an IC50 in assay [5] of 401 nM.
On to `O=C1Nc2ccc(F)c(F)c2[C@](C#CC2CC2)(C(F)(F)F)N1`, for which the results for the concentration for an effect of 90% (IC90) in assay [7] and in [8] were 101 nM and 6600 nM, respectively.
For the molecule `COc1ccc2c(c1)[C@@](C#Cc1ccccc1)(C(F)(F)F)NC(=O)N2`, the concentration for an effect of 90% (IC90) in assay [11] amounted to 462 nM; in assay [1] (Human immunodeficiency virus 1), 283 nM; in assay [2], 3.2 nM; in assay [3], 3590 nM; in [4], 42 nM. Further, the midpoint of inhibition in assay [5], the IC50, lay at 219 nM.
In the case of `O=C1Nc2ccc(F)c(F)c2[C@@](C#CC2CC2)(C(F)(F)F)N1` (stereo in doubt; 13) [listing 2 of 2 here], it took 19 nM to reach the 90% level in assay [4] (IC90). That is a double-digit nanomolar value.
Turning to `CC(C)C#C[C@]1(C(F)(F)F)NC(=O)Nc2ccc(Cl)cc21`, the 90% effect concentration (IC90) worked out at 28 nM in [11]; 22 nM in [1] (Human immunodeficiency virus 1); 3 nM in assay [2]; 653 nM in [3]; 90 nM in [4]. Besides, inhibition in assay [5] was half-maximal at 281 nM (IC50).
Turning to `O=C1Nc2ccc(F)cc2[C@@](C#CC2CC2)(C(F)(F)F)N1`, the concentration for an effect of 90% (IC90) in [11] came to 29 nM; in [1] (Human immunodeficiency virus 1), 48 nM; in assay [2], 2 nM; in assay [3] it was 566 nM; in assay [4] it was 24 nM. In assay [5], this molecule showed an IC50 of 50 nM.
On to `O=C1Nc2ccc(Cl)cc2[C@](C#CC2CC2)(C(F)(F)F)N1`, for which the values for the IC90 in assay [7] and in [8] were 34000 nM and 267 nM, respectively.
Turning to `O=C1Nc2ccc(Cl)cc2[C@@](C#Cc2ccccc2)(C(F)(F)F)N1`, the 90% effect concentration (IC90) came to 365 nM in assay [11]; 250 nM in assay [1] (Human immunodeficiency virus 1); 7.1 nM in [2]; 3000 nM in [3]; 86 nM in assay [4]. Besides, it took 277 nM to reach half-maximal inhibition in [5] (IC50).
For the molecule `O=C1Nc2ccc(F)c(F)c2[C@@](C#Cc2ccccn2)(C(F)(F)F)N1`, the IC90 in assay [11] turned out to be 37 nM; in [1] (Human immunodeficiency virus 1), 109 nM; in assay [2], 2 nM; in assay [3], 1310 nM; in assay [4], 24 nM. The molecule also yielded a half-maximal inhibitory concentration (IC50) in assay [5] of 68 nM.
In the case of `CC(C)C#C[C@]1(C(F)(F)F)NC(=O)Nc2ccc(F)c(F)c21` (stereo in doubt; 37) [listing 2 of 2 here], it took 15 nM to reach the 90% level in [8] (IC90).
With `CC(C)C#C[C@]1(C(F)(F)F)NC(=O)Nc2ccc(F)c(Cl)c21`, the concentration for an effect of 90% (IC90) is 13 nM in assay [11]; 15 nM in [1] (Human immunodeficiency virus 1); 3 nM in [2]; 74 nM in assay [3]; 15 nM in assay [4]. In assay [5], the midpoint of inhibition, the IC50, lay at 78 nM.
With `CCC#C[C@]1(C(F)(F)F)NC(=O)Nc2ccc(Cl)cc21`, the 90% effect concentration (IC90) stood at 26 nM in assay [1] (Human immunodeficiency virus 1), 3.3 nM in assay [2], 826 nM in assay [3] and 83 nM in [4]. The molecule further came in with an IC50 in [5] of 110 nM.
As for `O=C1Nc2ccc(Cl)cc2[C@@](C#Cc2ccccn2)(C(F)(F)F)N1`, the IC90 is 64 nM in assay [11]; 160 nM in [1] (Human immunodeficiency virus 1); 3.4 nM in [2]; 3730 nM in assay [3]; 79 nM in [4]. Further, in assay [5], the IC50 was 129 nM.
With `COc1ccc2c(c1)[C@@](C#CC1CC1)(C(F)(F)F)NC(=O)N2`, the IC90 in assay [11] turned out to be 46 nM; in [1] (Human immunodeficiency virus 1) it was 40 nM; in assay [2], 2.9 nM; in assay [3], 396 nM; in assay [4] it was 29 nM. Besides, the IC50 in assay [5] was 124 nM.
As to `O=C1Nc2ccc(Cl)c(F)c2[C@@](C#CC2CC2)(C(F)(F)F)N1`, the IC90 in [1] (Human immunodeficiency virus 1) is 18 nM; in assay [2], 4.8 nM; in assay [3], 151 nM; in assay [4], 40 nM. Further, the midpoint of inhibition in assay [5], the IC50, lay at 102 nM.
Regarding `O=C1Nc2ccc(F)cc2[C@@](C#Cc2ccccc2)(C(F)(F)F)N1`, the IC90 was 677 nM in assay [11]; 322 nM in assay [1] (Human immunodeficiency virus 1); 6.6 nM in [2]; 3220 nM in [3]; 66 nM in assay [4]. Half-maximal inhibition in assay [5] (IC50) was put at 143 nM.

The values are drawn from ChEMBL document CHEMBL1133185, “Inhibition of clinically relevant mutant variants of HIV-1 by quinazolinone non-nucleoside reverse transcriptase inhibitors” (J Med Chem, 2000).
